# Laboratory results from US20260234115A1, “LIPID COMPOUNDS, COMPOSITIONS, AND USES THEREOF” (Liberate Bio, Inc., priority 2023, published 2026).
# Marks after values point to notes of the source that are not given here.
# Experiments:
# mouse organs = test: In vivo activity screening in mice: organ mean total flux (p/s) of luciferase activity after injection of F2 LNP pools (Table 6, FIG. 7A-7C); conditions: Mouse 9, dose 0.5 mg/kg, luciferase mRNA
# Method in brief: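 C57BL/6J mice given one tail-vein injection of pooled Formulation F2 LNPs carrying firefly luciferase mRNA (0.25-3 mg/kg) in PBS. At 4-6 h, s.c. D-luciferin given; organs imaged ex vivo by IVIS within 10-15 min, after saline cardiac perfusion. Mean total flux (p/s) per organ ROI.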
# NHP organs = test: In vivo activity screening in non-human primates: mean normalized UMI counts of barcoded mRNA in tissues after IV infusion of pooled F2 LNPs (Table 7, FIG. 8-11); design: species or system cynomolgus monkeys (Macaca fascicularis); conditions: NHP 2, pooled F2 LNPs, IV infusion, 4-6 hours
# Protocol: Non-human primate (NIIP) biodistribution studies were performed in cynomolgus monkeys (e.g., Macaca fascicularis), aged 4-6 years. Animals were premedicated with dexamethasone, famotidine and diphenhydramine (at 1, 0.5 and 5 mg/kg, respectively) −2 and −1 day prior to test material dosing. LNP formulations (prepared in Formulation F2 from Example 1) were prepared with ionizable lipids so that each LNP formulation encapsulates one or more mRNAs with predetermined unique barcode sequences as their cargo. LNPs in PBS, identified by their unique barcoded mRNA cargo, are then pooled together at predetermined ratios. To evaluate LNP biodistribution into tissues upon systemic administration, NHPs received the dose administration by single intravenous infusion via peripheral vein (cephalic, saphenous, or another available) for 30 minutes with LNP dosing material (individual or pooled) in PBS at different total dose (0.5-1 mg/kg) levels.
# At predetermined time points (4-6 hours after pooled test material administration), animals were sacrificed by exsanguination via the femoral artery after the intravenous injection of ketamine (10 mg/kg) and Euthasol® (0.25 mL/kg). Then, all animals underwent whole-body perfusion with PBS prior to tissue collection. 20-25 mg samples for biodistribution analysis were collected from all treatment group animals and then placed in sample tubes containing RNALater™ solution. All tissue samples were stored at room temperature for 24 hours, then the supernatants were removed, and samples were frozen.
# To determine the unique LNPs distributed in the tissues, samples were homogenized by a tissue homogenizer (e.g., TissueLyser). Total RNA from the tissue homogenates were extracted by standard methods. Then, normalized amounts of RNA were sequenced using a targeted RNA sequencing approach with unique molecular identifiers (UMI) to ensure accurate RNA molecule counting. For each tissue, the resulting RNA molecule counts were normalized by pooled test article RNA counts. The results were analyzed using the internal bioinformatics pipeline.
# LNPs comprising MC3 used as a control and for cross-mouse comparison. Dose is in mg/kg; LC is Lipid Compound according to Table 1.
# Screening results for NHP Group 1 (spleen, femur, and muscle) are shown in FIG. 8A, FIG. 8B, and FIG. 8C.
smiles,measurement,setting,value
"CCCCC/C=C\CCOC(=O)CCCCC(=O)OCC(COC(=O)CCCCC(=O)OCC/C=C\CCCCC)(COC(=O)CCC(CCCCCC)OC(=O)C12CCN(CC1)CC2)COC(=O)CC12CC3CC(CC(C3)C1)C2 (centres unmarked) [Compound 62, O6-[2-[[2-(1-adamantyl)acetyl]oxymethyl]-2-[[6-[(Z)-non-3-enoxy]-6-oxo-hexanoyl]oxymethyl]-3-[4-(quinuclidine-4-carbonyloxy)decanoyloxy]propyl]O1-[(Z)-non-3-enyl]hexanedioate]",Organ Mean Total Flux Femur,mouse organs,0.6 p/s (×10^6)
same,Organ Mean Total Flux Heart,mouse organs,0.1 p/s (×10^6)
same,Organ Mean Total Flux Kidney,mouse organs,0.3 p/s (×10^6)
same,Organ Mean Total Flux Liver,mouse organs,38.0 p/s (×10^6)
same,Organ Mean Total Flux Lung,mouse organs,2.5 p/s (×10^6)
same,Organ Mean Total Flux Muscle,mouse organs,1.4 p/s (×10^6)
same,Organ Mean Total Flux Pancreas,mouse organs,0.5 p/s (×10^6)
same,Organ Mean Total Flux Spleen,mouse organs,3.3 p/s (×10^6)
same,Mean normalized UMI counts (×10^4) Bone Marrow,NHP organs; bone marrow,19.0 ×10^4
same,Mean normalized UMI counts (×10^4) Brain,NHP organs; brain,3.8 ×10^4
same,Mean normalized UMI counts (×10^4) Heart,NHP organs; heart,87.0 ×10^4
same,Mean normalized UMI counts (×10^4) Kidney,NHP organs; kidney,21.9 ×10^4
same,Mean normalized UMI counts (×10^4) Liver,NHP organs; liver,27.4 ×10^4
same,Mean normalized UMI counts (×10^4) Lung,NHP organs; lung,21.8 ×10^4
same,Mean normalized UMI counts (×10^4) Muscle,NHP organs; muscle,43.9 ×10^4
same,Mean normalized UMI counts (×10^4) Pancreas,NHP organs; pancreas,8.1 ×10^4
same,Mean normalized UMI counts (×10^4) Spleen,NHP organs; spleen,29.8 ×10^4
